Results from PubChem BioAssay (NCI).
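Cells were grown in 96-well plates and exposed to each compound for 48 hours at five concentrations; endpoints were interpolated linearly between bracketing concentrations, or set to the highest concentration if not reached. Here, GI50 denotes the concentration required for 50% inhibition of growth. TGI: concentration producing complete growth inhibition.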

Experiments:
Assay in all cases: inhibition of tumour cell growth, NCI panel, 48 h
[1] = system: SK-MEL-28 melanoma
[2] = system: MDA-MB-435
[3] = system: HOP-62 NSCLC
[4] = system: CAKI-1 renal
[5] = system: HT29 colon
[6] = system: A498 renal
[7] = system: EKVX NSCLC
[8] = system: SN12C renal
[9] = system: UACC-257 melanoma
[10] = system: TK-10 renal
[11] = system: BT-549 breast
[12] = system: MCF7 breast
[13] = system: SW-620 colon
[14] = system: HOP-92 NSCLC
[15] = system: MALME-3M melanoma
[16] = system: COLO 205 colon
[17] = system: KM12 colon
[18] = system: NCI-H226 lung
[19] = system: SF-539 CNS
[20] = system: MDA-MB-231 breast
[21] = system: T-47D breast
[22] = system: U251 CNS
[23] = system: K-562 leukemia
[24] = system: LOX IMVI melanoma
[25] = system: SK-MEL-5 melanoma
[26] = system: SK-MEL-2 melanoma
[27] = system: M14 melanoma
[28] = system: HCT-116 colon
[29] = system: RXF 393 renal
[30] = system: HL-60(TB) leukemia
[31] = system: SNB-19 CNS
[32] = system: HCC-2998 colon
[33] = system: DU-145 prostate
[34] = system: OVCAR-5 ovarian
[35] = system: PC-3 prostate
[36] = system: HS 578T breast
[37] = system: OVCAR-8 ovarian
[38] = system: NCI-H460 lung
[39] = system: MOLT-4 leukemia
[40] = system: CCRF-CEM leukemia
[41] = system: NCI-H522 lung
[42] = system: UACC-62 melanoma
[43] = system: NCI/ADR-RES ovarian
[44] = system: 786-0 renal
[45] = system: IGROV1 ovarian
[46] = system: HCT-15 colon
[47] = system: OVCAR-4 ovarian
[48] = system: SF-295 CNS
[49] = system: SK-OV-3 ovarian
[50] = system: SF-268 CNS
[51] = system: NCI-H23 lung
[52] = system: SR leukemia
[53] = system: OVCAR-3 ovarian
[54] = system: A549 NSCLC
[55] = system: UO-31 renal

## O=C(Nc1ccc(Br)cc1F)c1cc(I)ccc1O
[1]
  GI50: 2.62 µM
  TGI: 11.3 µM
[2]
  GI50: 3.04 µM
  TGI: 10.1 µM
[3]
  GI50: 2.27 µM
  TGI: 8.15 µM
[4]
  GI50: 1.83 µM
  TGI: 6.51 µM
[5]
  GI50: 16.9 µM
  TGI: 78.3 µM
[6]
  GI50: 1.32 µM
  TGI: 3.46 µM
[7]
  GI50: 2.25 µM
  TGI: 28.6 µM
[8]
  GI50: 2.75 µM
  TGI: 9.91 µM
[9]
  GI50: 2.43 µM
  TGI: 6.88 µM
[10]
  GI50: 4.77 µM
  TGI: 9.43 µM
[11]
  GI50: 2.26 µM
  TGI: 6.43 µM
[12]
  GI50: 1.97 µM
  TGI: > 100 µM
[13]
  GI50: 3.07 µM
  TGI: 17.7 µM
[14]
  GI50: 1.08 µM
  TGI: 4.8 µM
[15]
  GI50: 2.07 µM
  TGI: 5.56 µM
[16]
  GI50: 12.8 µM
  TGI: 30.8 µM
[17]
  GI50: 2.98 µM
  TGI: 9.14 µM
[18]
  GI50: 1.9 µM
  TGI: 5.48 µM
[19]
  GI50: 2.8 µM
  TGI: 12.1 µM
[20]
  GI50: 1.77 µM
  TGI: 6.28 µM
[21]
  GI50: 1.92 µM
  TGI: 6.35 µM
[22]
  GI50: 2.67 µM
  TGI: > 100 µM
[23]
  GI50: 2.52 µM
  TGI: > 100 µM
[24]
  GI50: 2.78 µM
  TGI: 14.3 µM
[25]
  GI50: 1.48 µM
  TGI: 2.98 µM
[26]
  GI50: 2 µM
  TGI: 5.71 µM
[27]
  GI50: 2.88 µM
  TGI: 13.1 µM
[28]
  GI50: 2.79 µM
  TGI: 11.4 µM
[29]
  GI50: 2.55 µM
  TGI: 7.54 µM
[30]
  GI50: 2.13 µM
  TGI: 4.79 µM
[31]
  GI50: 3.08 µM
  TGI: > 100 µM
[32]
  GI50: 3.14 µM
  TGI: 12.7 µM
[33]
  GI50: 3.89 µM
  TGI: > 100 µM
[34]
  GI50: 3.17 µM
  TGI: > 100 µM
[35]
  GI50: 2.31 µM
  TGI: 7.86 µM
[36]
  GI50: 2.43 µM
  TGI: 9.1 µM
[37]
  GI50: 3.01 µM
  TGI: 15.9 µM
[38]
  GI50: 3.15 µM
  TGI: > 100 µM
[39]
  GI50: 2.66 µM
  TGI: 7.48 µM
[40]
  GI50: 3.58 µM
  TGI: > 100 µM
[41]
  GI50: 2.11 µM
  TGI: 7.16 µM
[42]
  GI50: 1.37 µM
  TGI: 4.43 µM
[43]
  GI50: 2.63 µM
  TGI: 8.5 µM
[44]
  GI50: 3.32 µM
  TGI: 11.4 µM
[45]
  GI50: 1.95 µM
  TGI: > 100 µM
[46]
  GI50: 2.94 µM
  TGI: 12.7 µM
[47]
  GI50: 3.16 µM
  TGI: > 100 µM
[48]
  GI50: 2.11 µM
  TGI: 4.85 µM
[49]
  GI50: 2.13 µM
  TGI: 7.95 µM
[50]
  GI50: 2.4 µM
  TGI: 29.6 µM
[51]
  GI50: 1.9 µM
  TGI: 6.01 µM
[52]
  GI50: 2.71 µM
  TGI: > 100 µM
[53]
  GI50: 3.06 µM
  TGI: > 100 µM
[54]
  GI50: 3.17 µM
  TGI: > 100 µM
[55]
  GI50: 1.52 µM
  TGI: 7.51 µM
